Data taken from ChEMBL document CHEMBL1152113, “The prooligonucleotide approach. III: Synthesis and bioreversibility of a chimeric phosphorodithioate prooligonucleotide” (Bioorg Med Chem Lett, 1996).

What was measured:
[1] = Half life period was reported in porcine liver esterase medium; type: ADME, Sus scrofa; conditions: pig
[2] = Half life period was reported in gastric juice; type: ADME, tissue-based
[3] = Half life period was reported in total cell extract medium; type: ADME
[4] = Half life period was reported in a culture medium (RPMI 1640 + 10% FCS); type: ADME
[5] = Half life period was reported in gastric juice, stable; No degradation observed up to 30 days; type: ADME, tissue-based; conditions: simulated gi fluid, 720 h
[6] = Half life period was reported in gastric juice; stable No degradation observed up to 30 days; type: ADME, tissue-based; conditions: simulated gi fluid, 720 h

| SMILES | half-life [1] | half-life [2] | half-life [3] | half-life [4] | T1/2 [5] | T1/2 [6] |
| --- | --- | --- | --- | --- | --- | --- |
| CC(=O)SCCSP(=S)(OC[C@H]1O[C@@H](n2cc(C)c(=O)[nH]c2=O)C[C@@H]1O)O[C@H]1C[C@H](n2cc(C)c(=O)[nH]c2=O)O[C@@H]1CO (some centres undefined) | < 2 min | 168 h | < 5 min | 6 h | – | – |
| Cc1cn([C@H]2C[C@H](OP(=S)(OC[C@H]3O[C@@H](n4cc(C)c(=O)[nH]c4=O)C[C@@H]3O)SCCSC(=O)c3ccccc3)[C@@H](CO)O2)c(=O)[nH]c1=O (some centres undefined) | 5 min | – | 36 min | 46.5 h | No degradation | – |
| Cc1cn([C@H]2C[C@H](OP(=S)(OC[C@H]3O[C@@H](n4cc(C)c(=O)[nH]c4=O)C[C@@H]3O)SCCSC(=O)C(C)(C)C)[C@@H](CO)O2)c(=O)[nH]c1=O (some centres undefined) | < 4 min | – | 54 min | 42.7 h | – | No degradation |
| CCCCCCCCCCCCOC[C@H]1O[C@@H](n2cc(C)c(=O)[nH]c2=O)C[C@@H]1O | – | – | 15 min | 32 h | – | – |
